{"source": "patent US20190231704A1", "about": "(Yale University, priority 2016, published 2019)", "origin": "cited, not measured here", "biological_target": "T1, ALK4 (Homo sapiens, UniProt P36896)", "T1 sequence (P36896 24-505)": "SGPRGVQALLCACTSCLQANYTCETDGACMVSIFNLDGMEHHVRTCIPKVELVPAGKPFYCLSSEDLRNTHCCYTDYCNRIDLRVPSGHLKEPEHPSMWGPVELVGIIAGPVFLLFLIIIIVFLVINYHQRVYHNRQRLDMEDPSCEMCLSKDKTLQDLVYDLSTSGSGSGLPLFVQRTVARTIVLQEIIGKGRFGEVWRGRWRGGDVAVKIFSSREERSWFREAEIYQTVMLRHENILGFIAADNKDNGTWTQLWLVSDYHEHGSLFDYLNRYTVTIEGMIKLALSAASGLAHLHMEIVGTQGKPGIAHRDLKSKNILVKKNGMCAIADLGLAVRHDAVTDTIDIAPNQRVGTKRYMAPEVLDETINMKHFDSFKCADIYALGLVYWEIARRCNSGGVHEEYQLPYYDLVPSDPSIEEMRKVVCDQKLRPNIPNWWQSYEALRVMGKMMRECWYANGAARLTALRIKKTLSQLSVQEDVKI"}
{"smiles": "Cc1cccc(-c2[nH]c(C(C)(C)C)nc2-c2ccc3c(c2)OCO3)n1", "note": "[SB-505124]", "values": [{"measurement": "IC50", "value": 0.129, "unit": "µM"}]}
